According to publication PMC7582516, “A Novel Series of [1,2,4]Triazolo[4,3-a]Pyridine Sulfonamides as Potential Antimalarial Agents: In Silico Studies, Synthesis and In Vitro Evaluation” (Molecules, 2020):
In brackets after ≈: the same amount, converted by molar mass.

How the values were obtained:
MRC-5 SV2 cells = experiment: Cytotoxicity assay (resazurin); type: cell-based; settings: Homo sapiens, MRC-5 fibroblast cytotoxicity, 72 h
Protocol: Stock solutions were prepared in 100% DMSO at 20 mg/mL just prior to screening. […] Reference drugs were either obtained from the fine chemical supplier Sigma or from WHO-TDR. The integrated panel of microbial screens and standard screening methodologies was adopted as previously described. All assays were performed in triplicate at the Laboratory of Microbiology, Parasitology and Hygiene at the University of Antwerp, Belgium. […] The selectivity antiprotozoal potential was assessed by simultaneous evaluation of cytotoxicity on a fibroblast (MRC-5) cell line. […] Cell viability was assessed fluorimetrically after 4 h of addition of resazurin. Fluorescence was measured (excitation 550 nm, emission 590 nm) and the results were expressed as % reduction in cell viability compared to control.

[1] = Solubility in DMSO/Water (practical data); type: physicochemical

| Compound | melting point | Solubility [1] | IC50 (MRC-5 SV2 cells) [µg/mL] |
| --- | --- | --- | --- |
| Cc1nnc2ccc(S(=O)(=O)N(Cc3ccc(F)cc3)c3ccc(Cl)cc3)cn12 [Compound 8i, N-(4-chlorophenyl)-N-(4-fluorobenzyl)-3-methyl-[1,2,4]triazolo[4,3-a]pyridine-6-sulfonamide] | 198 to 199 °C | – | > 64 |
| O=c1n(Cc2ccccc2Cl)nc2c(S(=O)(=O)N3CCOCC3)cccn12 [Compound 13d, 2-(2-Chlorobenzyl)-8-(morpholinosulfonyl)-[1,2,4]triazolo[4,3-a]pyridin-3(2H)-one] | – | – | > 64 |
| Cc1cc(C)cc(N(Cc2cc(C)ccc2C)S(=O)(=O)c2cccn3c(C)nnc23)c1 [Compound 8b, N-(2,5-dimethylbenzyl)-N-(3,5-dimethylphenyl)-3-methyl-[1,2,4]triazolo[4,3-a]pyridine-8-sulfonamide] | – | – | 48.5 (≈ 112 µM) |
| O=c1n(Cc2ccc(F)cc2Cl)nc2ccc(S(=O)(=O)N3CCSCC3)cn12 [Compound 13j, 2-(2-Chloro-4-fluorobenzyl)-6-(thiomorpholinosulfonyl)-[1,2,4]triazolo[4,3-a]pyridin-3(2H)-one] | 190 to 191 °C | – | > 64 |
| CCc1nnc2ccc(S(=O)(=O)N(Cc3cccc(F)c3)c3ccc(OC)cc3)cn12 [Compound 8e, 3-Ethyl-N-(3-fluorobenzyl)-N-(4-methoxyphenyl)-[1,2,4]triazolo[4,3-a]pyridine-6-sulfonamide] | – | moderately soluble | 18.2 (≈ 41.3 µM) |
| Cc1nnc2ccc(S(=O)(=O)N(Cc3ccccc3F)c3cccc(Cl)c3)cn12 [Compound 8h, N-(3-chlorophenyl)-N-(2-fluorobenzyl)-3-methyl-[1,2,4]triazolo[4,3-a]pyridine-6-sulfonamide] | – | – | > 64 |
| Cc1nnc2ccc(S(=O)(=O)N(Cc3cccc(Cl)c3)c3ccc(F)cc3)cn12 [Compound 8g, N-(3-chlorobenzyl)-N-(4-fluorophenyl)-3-methyl-[1,2,4]triazolo[4,3-a]pyridine-6-sulfonamide] | 107 to 109 °C | – | > 64 |
| Cc1cccc(CN(c2ccc(F)cc2)S(=O)(=O)c2ccc3nnc(C)n3c2)c1 [Compound 8f, N-(4-fluorophenyl)-3-methyl-N-(3-methylbenzyl)-[1,2,4]triazolo[4,3-a]pyridine-6-sulfonamide] | 104 to 105 °C | – | > 64 |
| COc1ccc(CN(c2cc(C)cc(C)c2)S(=O)(=O)c2cccn3c(C)nnc23)cc1 [Compound 8c, N-(3,5-dimethylphenyl)-N-(4-methoxybenzyl)-3-methyl-[1,2,4]triazolo[4,3-a]pyridine-8-sulfonamide] | – | – | > 64 |
| CC1CCN(S(=O)(=O)c2ccc3nn(Cc4ccccc4F)c(=O)n3c2)CC1 [Compound 13h, 2-(2-Fluorobenzyl)-6-(4-methylpiperidin-1-ylsulfonyl)-[1,2,4]triazolo[4,3-a]pyridin-3(2H)-one] | 150 to 151 °C | – | > 64 |
| COC(=O)c1ccc(CN(c2cccc(C)c2)S(=O)(=O)c2ccc3nnc(C)n3c2)o1 [Compound 8d, Methyl 5-{[3-methyl-N-(3-methylphenyl)-[1,2,4]triazolo[4,3-a]pyridine-6-sulfonamido]methyl}furan-2-carboxylate] | 152 to 154 °C | – | > 64 |
| O=S(=O)(c1cccn2cnnc12)N(Cc1cccc(Cl)c1)c1cc(F)cc(F)c1 [Compound 8a, N-(3-chlorobenzyl)-N-(3,5-difluorophenyl)-[1,2,4]triazolo[4,3-a]pyridine-8-sulfonamide] | 160 to 162 °C | – | > 64 |

The next lines start with results.

| melting point | Solubility [1] | Compound | IC50 (MRC-5 SV2 cells) [µg/mL] |
| --- | --- | --- | --- |
| 258 to 260 °C (dec.) | – | O=C1CCCN1c1ccc(Cn2nc3c(S(=O)(=O)N4CCOCC4)cccn3c2=O)cc1 [Compound 13e, 8-(Morpholinosulfonyl)-2-[4-(2-oxopyrrolidin-1-yl)benzyl]-[1,2,4]triazolo[4,3-a]pyridin-3(2H)-one] | > 64 |
| 154 to 155 °C | – | O=c1n(Cc2cccc(F)c2)nc2ccc(S(=O)(=O)N3CCSCC3)cn12 [Compound 13i, 2-(3-Fluorobenzyl)-6-(thiomorpholinosulfonyl)-[1,2,4]triazolo[4,3-a]pyridin-3(2H)-one] | > 64 |
| 160 to 161 °C | – | O=c1n(Cc2ccc3c(c2)OCO3)nc2c(S(=O)(=O)N3CCCCC3)cccn12 [Compound 13b, 2-(Benzo[d][1,3]dioxol-5-ylmethyl)-8-(piperidin-1-ylsulfonyl)-[1,2,4]triazolo[4,3-a]pyridin-3(2H)-one] | > 64 |
| 113 to 115 °C | – | O=S(=O)(c1cccn2c(SCc3ccc(F)cc3)nnc12)N1CCCc2ccccc21 [Compound 15f, 1-(3-(4-Fluorobenzylthio)-[1,2,4]triazolo[4,3-a]pyridin-8-ylsulfonyl)-1,2,3,4-tetrahydroquinoline] | > 64 |
| – | moderately soluble | O=c1n(Cc2cccc(Cl)c2)nc2c(S(=O)(=O)N3CCCCC3)cccn12 [Compound 13a, 2-(3-Chlorobenzyl)-8-(piperidin-1-ylsulfonyl)-[1,2,4]triazolo[4,3-a]pyridin-3(2H)-one] | > 64 |
| 155 to 156 °C | – | Cc1ccc(CSc2nnc3c(S(=O)(=O)N4CCCCC4)cccn23)cc1 [Compound 15c, 3-(4-Methylbenzylthio)-8-(piperidin-1-ylsulfonyl)-[1,2,4]triazolo[4,3-a]pyridine] | > 64 |
| 221 to 222 °C | – | O=c1n(Cc2cc(F)cc(F)c2)nc2c(S(=O)(=O)N3CCCCC3)cccn12 [Compound 13c, 2-(3,5-Difluorobenzyl)-8-(piperidin-1-ylsulfonyl)-[1,2,4]triazolo[4,3-a]pyridin-3(2H)-one] | > 64 |
| 143 to 145 °C | – | O=S(=O)(c1cccn2c(SCc3cccc(Cl)c3)nnc12)N1CCCC1 [Compound 15d, 3-(3-Chlorobenzylthio)-8-(pyrrolidin-1-ylsulfonyl)-[1,2,4]triazolo[4,3-a]pyridine] | > 64 |
| 160 to 162 °C | – | O=S(=O)(c1cccn2c(SCc3cccc(Br)c3)nnc12)N1CCCCC1 [Compound 15b, 3-(3-Bromobenzylthio)-8-(piperidin-1-ylsulfonyl)-[1,2,4]triazolo[4,3-a]pyridine] | > 64 |
| 145 to 146 °C | – | Cc1cccc(Cn2nc3ccc(S(=O)(=O)N4CCC(C)CC4)cn3c2=O)c1 [Compound 13g, 2-(3-Methylbenzyl)-6-(4-methylpiperidin-1-ylsulfonyl)-[1,2,4]triazolo[4,3-a]pyridin-3(2H)-one] | > 64 |
| 173 to 174 °C | – | O=c1n(Cc2ccc(Cl)cc2)nc2ccc(S(=O)(=O)N3CCCCC3)cn12 [Compound 13f, 2-(4-Chlorobenzyl)-6-(piperidin-1-ylsulfonyl)-[1,2,4]triazolo[4,3-a]pyridin-3(2H)-one] | > 64 |
| 169 to 170 °C | – | COc1ccc(CSc2nnc3c(S(=O)(=O)N4CCCCC4)cccn23)cc1 [Compound 15a, 3-(4-Methoxybenzylthio)-8-(piperidin-1-ylsulfonyl)-[1,2,4]triazolo[4,3-a]pyridine] | > 64 |
| 164 to 166 °C | – | O=S(=O)(c1cccn2c(SCc3ccccc3Cl)nnc12)N1CCCC1 [Compound 15e, 3-(2-Chlorobenzylthio)-8-(pyrrolidin-1-ylsulfonyl)-[1,2,4]triazolo[4,3-a]pyridine] | > 64 |
